The values below come from ChEMBL document CHEMBL5550086, “Drug discovery targeting nicotinamide phosphoribosyltransferase (NAMPT): Updated progress and perspectives” (Bioorg Med Chem, 2024).

Usually EC50 stands for the midpoint of the concentration-response curve. As a reminder, the Emax is the greatest response seen or fitted, relative to the assay's reference. Broadly, the IC50 is the concentration that inhibits the measured activity by half. One may read the DC50 as the concentration giving 50% degradation.

The target of series [1] is Nicotinamide phosphoribosyltransferase (Mus musculus, UniProt Q99KQ4). As to the kind of experiment: Activation of N-terminal 6His-tagged mouse NAMPT measured for 20 mins by fluorescence based spectrometer analysis.
Nicotinamide phosphoribosyltransferase (Mus musculus, UniProt Q99KQ4), sequence (Q99KQ4 whole entry): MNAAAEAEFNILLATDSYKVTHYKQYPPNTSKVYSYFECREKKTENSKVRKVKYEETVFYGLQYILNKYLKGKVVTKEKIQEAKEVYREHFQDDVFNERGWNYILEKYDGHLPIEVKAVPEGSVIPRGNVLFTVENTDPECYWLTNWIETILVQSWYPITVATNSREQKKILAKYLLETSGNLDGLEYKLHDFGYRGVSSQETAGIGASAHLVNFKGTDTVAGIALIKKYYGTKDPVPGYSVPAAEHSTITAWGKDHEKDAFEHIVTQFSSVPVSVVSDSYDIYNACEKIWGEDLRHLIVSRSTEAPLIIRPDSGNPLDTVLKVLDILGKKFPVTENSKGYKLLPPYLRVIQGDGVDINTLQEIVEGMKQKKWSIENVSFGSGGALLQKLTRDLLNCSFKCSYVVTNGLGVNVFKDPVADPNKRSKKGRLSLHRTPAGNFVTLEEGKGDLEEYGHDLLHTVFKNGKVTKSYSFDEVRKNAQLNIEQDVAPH
Series [2] addresses Nicotinamide phosphoribosyltransferase (Mus musculus) (UniProt Q99KQ4). As to the kind of experiment: Activation of N-terminal 6His-tagged mouse NAMPT assessed as increase in intracellular NAD+ level measured for 20 mins by fluorescence based spectrometer analysis relative to control. Type of series: cell-based. To be noted: filed as activator.
For a further series, the system named is A2780. As to the kind of experiment: cells. As to conditions: Homo sapiens, A2780, 72 h.
Series [3] concerns the target T1, Protein cereblon/Nicotinamide phosphoribosyltransferase (Homo sapiens, UniProt P43490+Q96SW2). Description: PROTAC activity at CRBN/NAMPT in human Jurkat cells assessed as induction of intracellular NAMPT degradation at 5 uM incubated for 24 hrs by Western blot analysis relative to control. Type of series: cell-based. Background: In western blotting, separated proteins are transferred to a membrane and probed.
Target sequence in this assay (P43490 whole entry, looked up): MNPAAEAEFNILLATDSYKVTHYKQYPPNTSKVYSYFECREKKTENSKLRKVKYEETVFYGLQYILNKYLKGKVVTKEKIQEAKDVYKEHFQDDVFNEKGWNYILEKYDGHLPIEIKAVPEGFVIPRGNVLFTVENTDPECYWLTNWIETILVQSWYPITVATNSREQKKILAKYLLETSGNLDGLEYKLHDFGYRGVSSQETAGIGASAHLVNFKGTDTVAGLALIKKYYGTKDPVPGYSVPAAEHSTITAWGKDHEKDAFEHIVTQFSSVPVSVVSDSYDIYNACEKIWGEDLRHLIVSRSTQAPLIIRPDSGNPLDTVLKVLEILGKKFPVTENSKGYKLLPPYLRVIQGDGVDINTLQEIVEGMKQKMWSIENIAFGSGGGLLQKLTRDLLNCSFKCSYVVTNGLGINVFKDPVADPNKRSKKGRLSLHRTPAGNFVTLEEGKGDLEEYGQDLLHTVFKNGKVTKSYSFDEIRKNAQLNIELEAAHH
Target sequence in this assay (Q96SW2 whole entry, looked up): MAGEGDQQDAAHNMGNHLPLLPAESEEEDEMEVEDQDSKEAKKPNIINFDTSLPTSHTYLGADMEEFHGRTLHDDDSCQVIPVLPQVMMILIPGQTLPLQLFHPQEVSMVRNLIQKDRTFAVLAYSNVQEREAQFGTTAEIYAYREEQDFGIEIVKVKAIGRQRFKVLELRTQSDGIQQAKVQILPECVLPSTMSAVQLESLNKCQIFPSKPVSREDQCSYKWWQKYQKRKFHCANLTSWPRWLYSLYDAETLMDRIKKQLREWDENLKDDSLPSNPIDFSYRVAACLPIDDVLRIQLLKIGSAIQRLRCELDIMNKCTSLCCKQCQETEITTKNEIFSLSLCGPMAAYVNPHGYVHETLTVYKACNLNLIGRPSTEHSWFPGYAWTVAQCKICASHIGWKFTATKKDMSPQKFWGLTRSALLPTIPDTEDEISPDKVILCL

Series [4] addresses T1, Protein cereblon/Nicotinamide phosphoribosyltransferase. As to the kind of experiment: PROTAC activity at CRBN/NAMPT in human Jurkat cells assessed as induction of intracellular NAMPT degradation incubated for 24 hrs by Western blot analysis. Type of series: cell-based.
Target sequence in this assay (P43490 whole entry): as the sequence (P43490 whole entry, looked up) above
Target sequence in this assay (Q96SW2 whole entry): as the sequence (Q96SW2 whole entry, looked up) above
The target of series [5] is T2, Nicotinamide phosphoribosyltransferase (Homo sapiens, UniProt P43490). As to the kind of experiment: Inhibition of NAMPT (unknown origin).
T2 sequence (P43490 whole entry): as the sequence (P43490 whole entry, looked up) above
A further series concerns HepG2. As to the kind of experiment: cells. To be noted: Homo sapiens, HepG2, 48 h.
The next series deals with Cytochrome P450 2C9 (Homo sapiens, UniProt P11712). As to the kind of experiment: Inhibition of CYP2C9 (unknown origin). Type of series: ADME.
Cytochrome P450 2C9, sequence (P11712 whole entry): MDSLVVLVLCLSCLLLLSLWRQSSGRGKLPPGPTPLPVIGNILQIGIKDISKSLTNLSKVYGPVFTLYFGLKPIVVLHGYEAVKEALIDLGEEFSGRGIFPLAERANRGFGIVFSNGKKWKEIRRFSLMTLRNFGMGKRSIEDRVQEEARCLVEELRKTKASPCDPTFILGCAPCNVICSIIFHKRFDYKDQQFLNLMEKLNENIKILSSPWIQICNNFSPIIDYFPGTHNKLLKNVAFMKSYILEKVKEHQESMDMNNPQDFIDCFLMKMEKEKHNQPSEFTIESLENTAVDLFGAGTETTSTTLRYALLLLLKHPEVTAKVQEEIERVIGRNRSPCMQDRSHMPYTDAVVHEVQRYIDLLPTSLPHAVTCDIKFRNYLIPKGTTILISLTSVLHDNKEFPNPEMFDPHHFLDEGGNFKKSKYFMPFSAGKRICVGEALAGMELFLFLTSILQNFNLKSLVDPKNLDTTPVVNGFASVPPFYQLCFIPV
For another series, the system named is HCT-116. Description: Anticancer activity against human HCT-116 cells assessed as reduction in cell growth. Type of series: functional, cell-based.
Series [6] can be described thus: Anticancer activity against human NYH/VM cells assessed as reduction in cell growth. Type of series: functional, cell-based.
The subject of another series is PC-3. As to the kind of experiment: Anticancer activity against human PC-3 cells. Type of series: functional, cell-based.
In series [7] the target is T2, Nicotinamide phosphoribosyltransferase. As to the kind of experiment: Activation of recombinant NAMPT (unknown origin) expressed in Escherichia coli by fluorescence based spectrometer analysis.
Series [8] has the same target. Description: Activation of N-terminal His-tagged human NAMPT expressed in Escherichia coli BL 21 (DE3) using NAM and PRPP as substrates incubated for 15 mins in presence of ATP by fluorescence based spectrometer analysis.

Nicotinamide phosphoribosyltransferase (Mus musculus), sequence (Q99KQ4 whole entry, looked up): as the sequence (Q99KQ4 whole entry) above

Take `O=C(NCc1ccc(CO)cc1)Nc1ccc(S(=O)(=O)N2CC3CCC(C2)O3)cc1`: in series [1], the EC50 came out at 1490 nM. Further, the Emax in [2] was 247%.

In the case of `O=S(=O)(c1ccc(CNc2ccc3cccn3c2)cc1)c1cc(F)cc(F)c1`, in the series with A2780, half-maximal inhibition (IC50) was put at 360 nM.

As to `O=C(/C=C/c1cccnc1)NCCCCC1CCN(C(=O)c2ccc(N3CCN(CCCCCCC#Cc4cccc5c4CN(C4CCC(=O)NC4=O)C5=O)CC3)cc2)CC1` (stereo unspecified), the Emax in series [3] stood at 92.5%. Also, in series [4], the 50% degradation concentration (DC50) is less than 1 nM.

In series [5], `Nc1ccc(/C=C/C(=O)NCc2cc3cc(-c4ccc(C(=O)N5CCC(F)(F)CC5)cc4)cc(-c4ccc(F)cc4)c3o2)cn1` [PADNARSERTIB] showed an IC50 of 120 nM.

For `CCCn1c(=O)c(-c2ccc(C(=O)NCc3cccnc3)cc2)nc2ccccc21`, the IC50 in the series on HepG2 came out at 1950 nM.

At Cytochrome P450 2C9, `O=C(NC[C@@H]1CCOC1)c1ccc(NC(=O)N2Cc3ccccc3C2)cc1` had an IC50 greater than 20 µM.

`N#C/N=C(\NCCCCCCC(=O)N(Cc1ccccc1)OC1CCCCC1)Nc1ccncc1`: the concentration for half-maximal inhibition (IC50) in the series on HCT-116 came to 0.4 nM; in [6] it was 0.02 nM; in the series on PC-3, 0.3 nM.

In the case of `O=C(/C=C/c1cccnc1)NCCCCC1CCN(C(=O)c2ccc(N3CCN(CCCCCC#Cc4cccc5c4CN(C4CCC(=O)NC4=O)C5=O)CC3)cc2)CC1` (stereo unspecified), the maximal response (Emax) in series [3] is 93.3%. Further, the DC50 in [4] is less than 1 nM.

For `O=C1C=C2Cc3cc(O)c(O)cc3C(c3ccccc3O)=C2C=C1O`, in [7], the EC50 was 3.5 µM.

`CCN(CC)C(=O)c1noc2cc(NC(=O)NCc3cnco3)ccc12`: the concentration for a half-maximal effect (EC50) in series [8] came out at 180 nM.

Turning to `Cc1nc2ccccc2n(Cc2ccc(C(=O)NCc3cccnc3)cc2)c1=O`, in the series on HepG2, the IC50 was 1690 nM.
